Reference: patent US5103018A, “Mitomycin derivatives” (Kyowa Hakko Kogyo Kabushiki Kaisha, priority 1986, dated 1992)
In brackets after ≈: the same amount, converted by molar mass.

Key:
in vivo = assay type: in vivo, mice (ddy strain); conditions: mouse, in vivo, ip; read-out: (WBC4000/ED50)* = (WBC4000/ED50)/[(WBC4000/ED50) of MMC1]
Experimental: (§1) Certain compounds were selected from Compounds I. The following Table 4 indicates anti-tumour activity against Sarcoma 180 solid tumour (ED50), acute toxicity (LD50) and effects on the peripheral leucocytes (WBC4000) of each compound.
(4) Effect upon the number of the peripheral leucocytes:
Sarcoma 180 solid tumour cells (5×10^6) were subcutaneously implanted into the right armpit of each mouse (body weight 20±2 g) of a group consisting of 5 male mice (ddy strain). 24 hours after implantation,a test compound was abdominally administered to each mouse. 4 days later, blood (each 0.02 ml) was collected from the suborbital plexus vein of each tumour-carrying mouse. The collected sample of blood was dispersed in 9.98 ml of Cell-kit Seven solution. One drop of saponin solution was added to the sample to dissolve erythrocytes and then a microcell counter was used to measure the number of leucocytes. On graph paper, the number of leucocytes was indicated on the y-axis by an arithmetic scale and the does of the test compound was indicated on the x-axis by a logarithmic scale.
The relationship between the number of peripheral leucocytes and the dosage of the test compound was plotted to obtain WBC4000 viz. the dosage corresponding to […] per mm^3 (about half of the number of leucocytes of normal mice).

Acute toxicity = assay type: in vivo, mice (ddy); conditions: mouse, in vivo, ip; for LD50 at 336 h: ddy mice, single i.p., 14 days, Behren Korber's method; for selectivity ratio: read-out: (C.I.)* = (LD50/ED50)/[(LD50/ED50) of MMC1]
Experimental: as §1
Each animal of the test group consisting of 5 ddy mice was once administered (i.p.) with a test compound. […] The LD50 was determined by Behren Korber's method.

Sarcoma 180 solid tumour = test: animal or person; assay type: in vivo, mice (ddy strain); conditions: Mus musculus, Sarcoma-180, ip, 168 h, read-out: ED50 ip
Text: as §1
(1) Effect against Sarcoma 180 solid tumour:
5×10^6 cells of Sarcoma 180 solid tumour cells were abdominally implanted into male mice of ddy strain. 7 days after this, ascites cells were sampled. The cells were washed once with a sterilized physiological solution of sodium chloride and were used to prepare a cell suspension containing 5×10^7 cells per ml. On each occasion, 0.1 ml of the cell suspension was subcutaneously implanted into the right armpit of a male mouse (ddy strain; body weight 20±2 g). 24 hours after the implantation of the tumour cells, the test compound which was dissolved in a physiological solution of sodium chloride with or without addition of Tween 80 was abdominally administered to each mouse of a group consisting of 5 animals at a does of 0.1-0.2 ml. The anti-tumour activity was determined as follows:
7 days after the implantation, the major axis (a) and the minor axis (b) of the tumour were measured to calculate a value of "a×b^2 /2" which corresponds to the volume of the tumour. The anti-tumour activity was expressed by T/C viz. the ratio of the volume of the tumours (T) of the group of animals administered with the test compound to the corresponding volume of tumours (C) of the untreated animals.
(2) Determination of ED50 :
The term ED50 denotes the administered amount needed for reducing the volume of Sarcoma 180 solid tumours in the animals to 50% on the basis of the corresponding volume of Sarcoma 180 solid tumours in control (untreated) animals.
On graph paper, T/C was indicated by an arithmetic scale on the longitudinal axis and the administered amount of test compound was indicated by a logarithmic scale on the lateral axis.

P388 Leukemia = test: Effect upon Leukemia P 388; assay type: in vivo, mouse (CDF1); conditions: single i.p., 33 days
Experimental: (5) Effect upon Leukemia P 388:
Ascites cells were collected from P388 Leukemia-carrying mouse (DBA/2) 7 days after the implantation. The number of the cells of P388 Leukemia in the sample was counted. A physiological solution of sodium chloride was sterilized and used to prepare a cell suspension containing 5×10^6 tumour cells per ml. On each occasion, 0.2 ml of the suspension containing 1×10^6 cells was implanted into the abdominal cavity of each mouse (CDF1; body weight 20~25 g). 24 hours after implantation, the test compound was once given to each mouse of a test group consisting of 6 mice by abdominal injection.
The activity of the test samples was determined by the ratio of the average survival days of the treated animals to the average survival days of untreated animals viz. ILS % (Increased Life Span).

[1] = system: Streptococcus faecalis ATCC 10541; test: Minimum inhibitory concentration, agar dilution method, SF; assay type: cell-based; conditions: Enterococcus faecalis, ATCC10541, pH 7, read-out: minimum inhibitory concentration, SF
Text: (§2) Certain Compounds I were selected. Table 3 indicates their anti-bacterial activities in terms of their minimum inhibitory concentration (μg/ml), determined by the agar dilution method effected at a pH of 7.0. In this table, the microorganisms used are abbreviated as follows:
SF: Streptococcus faecalis ATCC 10541

[2] = system: Klebsiella pneumoniae ATCC 10031; test: microbe, parasite or virus in culture; assay type: cell-based; conditions: ATCC10031, pH 7, read-out: minimum inhibitory concentration, KP
Text: Certain Compounds I were selected. […] In this table, the microorganisms used are abbreviated as follows:
KP: Klebsiella pneumoniae ATCC 10031

[3] = system: Staphylococcus aureus ATCC 6583P; test: Minimum inhibitory concentration, agar dilution method, SA; assay type: cell-based; conditions: Staphylococcus aureus, ATCC6583P, pH 7, read-out: minimum inhibitory concentration, SA
Text: as §2
SA: Staphylococcus aureus ATCC 6583P

[4] = system: Proteus vulgaris ATCC 6897; test: Minimum inhibitory concentration, agar dilution method, PV; assay type: cell-based; conditions: Proteus vulgaris, ATCC6897, pH 7, read-out: minimum inhibitory concentration, PV
Text: as §2
PV: Proteus vulgaris ATCC 6897

Row | Structure (SMILES) | selectivity ratio (in vivo) | LD50 at 336 h (Acute toxicity) [mg/kg] | selectivity ratio (Acute toxicity) | ED50 (Sarcoma 180 solid tumour) [mg/kg] | ILS* (ratio of ILS % to that of mitomycin C) (P388 Leukemia; dose 20.3 mg/kg) | MIC [1] [µg/mL] | MIC [2] [µg/mL] | MIC [3] [µg/mL] | MIC [4] [µg/mL] | ILS* (ratio of ILS % to that of mitomycin C) (P388 Leukemia; dose 3.13 mg/kg) | ILS* (ratio of ILS % to that of mitomycin C) (P388 Leukemia; dose 50 mg/kg)
1 | CO[C@@]12[C@H](COC(N)=O)C3=C(C(=O)C(C)=C(NCCSSCCNC(=O)c4cc(=O)[nH]c(=O)[nH]4)C3=O)N1C[C@@H]1N[C@@H]12 [Compound 14, 7-N-[2-[(2-orotamidoethyl)dithio]ethyl]mitomycin C] | 1.2 | 45 | 1.68 | 11.5 | > 2.60 |  |  |  |  |  | 
2 | CO[C@@]12[C@H](COC(N)=O)C3=C(C(=O)C(C)=C(NCCSSCCNC(=O)/C=C(C)/C=C/C=C(C)/C=C/C4=C(C)CCCC4(C)C)C3=O)N1C[C@@H]1N[C@@H]12 [Compound 15] | 3 | 16.9 | 0.82 | 7.4 |  | 0.63 (≈ 0.838 µM) | 2.5 (≈ 3.32 µM) | 0.078 (≈ 0.104 µM) | 1.3 (≈ 1.73 µM) |  | 
3 | CO[C@@]12[C@H](COC(N)=O)C3=C(C(=O)C(C)=C(NCCSSCCC(N)=O)C3=O)N1C[C@@H]1N[C@@H]12 [Compound 21, 7-N-[2-[(2-carbamoylethyl)dithio]ethyl]mitomycin C] | 1.01 | 18.8 | 0.68 | 11.8 |  | 1.3 (≈ 2.61 µM) | 1.3 (≈ 2.61 µM) | 0.63 (≈ 1.27 µM) | 5 (≈ 10 µM) |  | 
4 | CO[C@@]12[C@H](COC(N)=O)C3=C(C(=O)C(C)=C(NCCSSCCC(=O)NC[C@H](O)c4ccc(O)c(O)c4)C3=O)N1C[C@@H]1N[C@@H]12 [Compound 32] | 2.39 | 30 | 1.56 | 7.1 |  |  |  |  |  | > 1.44 | 
5 | CO[C@@]12[C@H](COC(N)=O)C3=C(C(=O)C(C)=C(NCCSSCCNC(=O)C(F)(F)F)C3=O)N1C[C@@H]1N[C@@H]12 [Compound 19, 7-N-[2-[(2-trifluoroacetamidoethyl)dithio]ethyl]mitomycin C] | > 0.96 | 9.4 | 0.51 | 8.7 |  |  |  |  |  |  | 
6 | CC1=C(NCCSSCCNC(=O)CC[C@@H](N)C(=O)O)C(=O)C2=C(C1=O)N1C[C@H]3[C@H](N3C)[C@]1(O)[C@H]2COC(N)=O (stereo partly drawn) [Compound 11, 7-N-[2-[[2-(N^5 -D-glutamino)ethyl]dithio]ethyl]mitomycin D] | 1.64 | 75 | 1.59 | 16.9 |  |  |  |  |  |  | 
7 | CC1=C(NCCSSCc2cn([C@H]3C[C@H](O)[C@@H](CO)O3)c(=O)[nH]c2=O)C(=O)C2=C(C1=O)N1C[C@H]3[C@H](N3C)[C@]1(O)[C@H]2COC(N)=O (some centres unmarked) [Compound 40, 7-N-[2-[[(2'-deoxyuridin-5-yl)methyl]dithio]ethyl]mitomycin D] | 0.95 | ≥ 200 | 1.22 | 104 |  |  |  |  |  |  | 
8 | CO[C@@]12[C@H](COC(N)=O)C3=C(C(=O)C(C)=C(NCCSSCc4cn([C@H]5C[C@H](O)[C@@H](CO)O5)c(=O)[nH]c4=O)C3=O)N1C[C@@H]1N[C@@H]12 [Compound 39, 7-N-[2-[[(2'-deoxyuridin-5-yl)methyl]dithio]ethyl]mitomycin C] | 1.5 | 75 | 1.37 | 34.7 |  |  |  |  |  |  | 1.83
9 | CC1=C(NCCSSCCNC(=O)[C@@H]2CCC(=O)N2)C(=O)C2=C(C1=O)N1C[C@H]3[C@H](N3C)[C@]1(O)[C@H]2COC(N)=O (stereo partly drawn) [Compound 12, 7-N-[2-[[2-(L-pyroglutamylamino)ethyl]dithio]ethyl]mitomycin D] | 5.57 | 75 | 1.8 | 18.4 |  |  |  |  |  |  | 
10 | CO[C@@]12[C@H](COC(N)=O)C3=C(C(=O)C(C)=C(NCCSSCCNC(=O)[C@@H]4CCCN4)C3=O)N1C[C@@H]1N[C@@H]12 [Compound 13, 7-N-[2-[[2-(L-prolylamino)ethyl]dithio]ethyl]mitomycin C] | 2.3 | 30 | 1.17 | 12.2 |  |  |  |  |  |  | 
11 | CC1=C(NCCSSCCNC(=O)C[C@H](N)C(=O)O)C(=O)C2=C(C1=O)N1C[C@H]3[C@H](N3C)[C@]1(O)[C@H]2COC(N)=O (stereo partly drawn) [Compound 10, 7-N-[2-[[2-(N^4 -L-asparagino)ethyl]dithio]ethyl]mitomycin D] | 2.5 | 75 | 2.19 | 13 |  |  |  |  |  |  | 
12 | CO[C@@]12[C@H](COC(N)=O)C3=C(C(=O)C(C)=C(NCCSSCCOC(=O)/C=C(C)/C=C/C=C(C)/C=C/C4=C(C)CCCC4(C)C)C3=O)N1C[C@@H]1N[C@@H]12 [Compound 35, 7-N-[2-[[2-(retinoyloxy)ethyl]dithio]ethyl]mitomycin C] |  |  |  |  |  | 10 (≈ 13.3 µM) |  | 5 (≈ 6.64 µM) |  |  | 
13 | CC1=C(NCCSSCc2c[nH]c(=O)[nH]c2=O)C(=O)C2=C(C1=O)N1C[C@H]3[C@H](N3C)[C@]1(O)[C@H]2COC(N)=O (some centres unmarked) [Compound 38, 7-N-[2-[[(2,4-dioxopyrimidin-5-yl)methyl]dithio]ethyl]mitomycin D] | > 8.71 | > 150 | > 2.26 | 24.5 |  |  |  |  |  |  | 
14 | CC1=C(NCCSSCCNC=O)C(=O)C2=C(C1=O)N1C[C@H]3[C@H](N3C)[C@]1(O)[C@H]2COC(N)=O (some centres unmarked) [Compound 18, 7-N-[2-[(2-formamidoethyl)dithio]ethyl]mitomycin D] | 3.89 | 52.5 | 1.94 | 10.6 |  |  |  |  |  |  | 
